Consider six compounds from PMC6278313.

For one data set, the target named is 5-HT1B (Homo sapiens, UniProt P28222). The experiment in a line: NIMH-PDSP radioligand binding screen, 5-HT1B.
The next data set deals with benzodiazepine (BzP). The experiment in a line: NIMH-PDSP radioligand binding screen, benzodiazepine site. Set-up: species or system rat. As to conditions: 10 μM.
Data set [1] relates to all tested receptors, transporters, and binding sites. The experiment in a line: NIMH-PDSP radioligand binding screen, whole panel. The conditions noted are these: 10 μM; except the sites named for 17 and 27.
For the next data set, the system named is human COX-2. As to conditions: cited from earlier work.
Data set [2] deals with DAT (dopamine transporter) (Homo sapiens, UniProt Q01959). The experiment in a line: NIMH-PDSP radioligand binding screen, DAT. The conditions noted are these: read-out: inhibition of radioligand binding at DAT.
In data set [3] the target is T1, COX-1 (Homo sapiens, UniProt P23219). The experiment in a line: COX-1 inhibition, human whole blood (Thromboxane B2 EIA).
Description: (§1) Thromboxane B2 EIA kit (COX-1) and Prostaglandin E2 EIA Kit (COX-2) were purchased from Cayman Chemicals, USA [45]. Blood from non-treated rhesus monkey and healthy human subjects was used with these ELISA kits to establish the inhibitory potencies (IC50’s) of test compounds for these enzymes [46]. Thromboxane, the product of COX-1, and prostaglandin E2, the product of COX2, were measured using 96-well plates and a UV spectrophotometer. The concentration-inhibition curves were fitted into a 4-parameter non-linear regression model in GraphPad Prism to calculate the IC50 of each test compound.
Data set [4] deals with T2, COX-1 (Macaca mulatta, UniProt F6S984).
T2 sequence (F6S984 25-599): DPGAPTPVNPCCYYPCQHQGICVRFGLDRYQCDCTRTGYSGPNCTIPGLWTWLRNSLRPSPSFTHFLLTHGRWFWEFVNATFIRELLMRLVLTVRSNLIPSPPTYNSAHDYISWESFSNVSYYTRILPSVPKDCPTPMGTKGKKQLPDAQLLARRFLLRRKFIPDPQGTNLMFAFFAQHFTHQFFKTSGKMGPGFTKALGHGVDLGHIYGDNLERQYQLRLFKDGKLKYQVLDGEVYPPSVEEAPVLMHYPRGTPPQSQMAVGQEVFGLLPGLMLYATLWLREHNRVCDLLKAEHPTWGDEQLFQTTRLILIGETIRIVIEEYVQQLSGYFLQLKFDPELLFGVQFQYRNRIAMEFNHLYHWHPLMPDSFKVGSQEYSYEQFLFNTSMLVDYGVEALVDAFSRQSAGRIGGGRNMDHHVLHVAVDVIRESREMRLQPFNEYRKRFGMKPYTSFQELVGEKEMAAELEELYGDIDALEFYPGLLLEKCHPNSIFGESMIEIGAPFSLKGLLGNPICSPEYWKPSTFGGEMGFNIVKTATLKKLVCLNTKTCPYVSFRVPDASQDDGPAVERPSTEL
The experiment in a line: COX-1 inhibition, monkey whole blood (Thromboxane B2 EIA).
Description: as §1

The target in data set [5] is T3, COX-2 (Macaca mulatta, UniProt F7BWZ9).
T3 sequence (F7BWZ9 18-604): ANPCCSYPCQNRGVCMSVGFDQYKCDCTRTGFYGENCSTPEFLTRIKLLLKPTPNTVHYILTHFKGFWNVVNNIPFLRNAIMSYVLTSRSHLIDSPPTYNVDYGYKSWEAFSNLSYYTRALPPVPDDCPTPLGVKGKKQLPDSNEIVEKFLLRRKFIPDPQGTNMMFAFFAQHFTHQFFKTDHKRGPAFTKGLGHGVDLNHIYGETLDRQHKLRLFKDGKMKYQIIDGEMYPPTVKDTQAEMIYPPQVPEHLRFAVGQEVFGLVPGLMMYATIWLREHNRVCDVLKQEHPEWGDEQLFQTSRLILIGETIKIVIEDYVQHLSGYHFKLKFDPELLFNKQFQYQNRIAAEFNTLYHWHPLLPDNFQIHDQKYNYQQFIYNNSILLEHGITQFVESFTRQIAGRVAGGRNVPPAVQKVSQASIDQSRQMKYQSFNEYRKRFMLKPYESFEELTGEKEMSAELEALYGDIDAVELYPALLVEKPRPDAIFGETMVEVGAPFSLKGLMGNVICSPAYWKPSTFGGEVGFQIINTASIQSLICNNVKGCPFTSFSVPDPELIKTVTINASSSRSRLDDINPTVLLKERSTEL
The experiment in a line: COX-2 inhibition, monkey whole blood (Prostaglandin E2 EIA).
Description: as §1

Data set [6] has as its target T1, COX-1. Set-up: endogenous in cells; host or cells: fresh human whole blood. As to conditions: footnote c; SE <15%; read-out: IC50 COX-1 Human WB (literature); cited from earlier work.
Data set [7] addresses T4, COX-2 (Homo sapiens, UniProt P35354).
T4 construct: endogenous in cells; host or cells: fresh human whole blood
T4 sequence (P35354 18-604): T3 sequence (F7BWZ9 18-604) with Y7H, L49F, V101A, F150L, T163S, K191N, D208A, H211R, N363T, R570G
The experiment in a line: COX-2 inhibition, human whole blood (Prostaglandin E2 EIA). Type of data set: cell-based. The conditions noted are these: mean ± SD, triplicate unless d n = 1, e n = 2; read-out: IC50 COX-2 Human WB.

The target of data set [8] is COX-2. Set-up: method as in literature cited in the text (18-30). The conditions noted are these: Chart 1; ref literature cited in the text (18-30); cited from earlier work.
The conditions of data set [9]: Chart 1; cited from earlier work.
Data set [10] relates to COX-2. As to conditions: Chart 1; PET in vivo; ref literature cited in the text (18-30); cited from earlier work.
A short description of data set [11]: Measured logD of radioligands (n-octanol / sodium phosphate buffer). As to conditions: n-octanol / sodium phosphate buffer 0.1 M pH 7.4; γ-counter. Type of data set: physicochemical. The procedure: cLogD (at pH 7.4) values were computed with Pallas for Windows software version 3.8 in default mode (CompuDrug International; Bal Harbor, FL, USA). The logD values of [^11C]17, [^18F]20, and [d2-^18F]27 were measured by a method that we have described previously. The radioactivity contents in the n-octanol and sodium phosphate buffer (0.1 M; pH 7.4) phases were determined with a γ-counter.

Numbering of substitutions follows the chain as printed. Where two headings read alike, the source gives them in different places.

T1 sequence (P23219 24-599): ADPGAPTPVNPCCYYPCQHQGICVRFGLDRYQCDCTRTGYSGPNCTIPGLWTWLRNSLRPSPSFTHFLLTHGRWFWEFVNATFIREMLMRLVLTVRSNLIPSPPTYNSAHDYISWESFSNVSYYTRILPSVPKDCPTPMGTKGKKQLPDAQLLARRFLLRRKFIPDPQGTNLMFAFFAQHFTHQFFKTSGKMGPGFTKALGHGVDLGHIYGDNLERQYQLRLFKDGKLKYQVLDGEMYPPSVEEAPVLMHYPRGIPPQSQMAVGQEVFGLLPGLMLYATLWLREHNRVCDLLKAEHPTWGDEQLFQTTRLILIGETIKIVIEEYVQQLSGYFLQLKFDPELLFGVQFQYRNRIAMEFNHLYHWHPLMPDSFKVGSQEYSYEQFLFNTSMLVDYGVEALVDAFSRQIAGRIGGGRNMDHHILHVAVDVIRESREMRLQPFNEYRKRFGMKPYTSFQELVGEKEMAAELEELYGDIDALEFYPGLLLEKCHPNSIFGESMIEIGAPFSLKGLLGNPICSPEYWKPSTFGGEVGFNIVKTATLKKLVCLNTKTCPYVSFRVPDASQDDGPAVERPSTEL
Sequence of 5-HT1B (P28222 whole entry): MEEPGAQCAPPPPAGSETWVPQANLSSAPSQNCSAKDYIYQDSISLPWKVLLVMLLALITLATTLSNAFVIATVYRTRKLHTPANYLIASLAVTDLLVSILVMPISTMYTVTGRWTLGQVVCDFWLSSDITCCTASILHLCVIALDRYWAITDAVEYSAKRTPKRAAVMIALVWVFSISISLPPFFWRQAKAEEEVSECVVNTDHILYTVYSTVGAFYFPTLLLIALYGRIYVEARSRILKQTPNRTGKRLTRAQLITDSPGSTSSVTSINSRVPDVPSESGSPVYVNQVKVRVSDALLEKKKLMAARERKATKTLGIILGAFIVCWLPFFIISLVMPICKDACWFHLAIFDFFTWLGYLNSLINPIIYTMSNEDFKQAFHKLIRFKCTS
Sequence of DAT (dopamine transporter) (Q01959 whole entry, species assumed): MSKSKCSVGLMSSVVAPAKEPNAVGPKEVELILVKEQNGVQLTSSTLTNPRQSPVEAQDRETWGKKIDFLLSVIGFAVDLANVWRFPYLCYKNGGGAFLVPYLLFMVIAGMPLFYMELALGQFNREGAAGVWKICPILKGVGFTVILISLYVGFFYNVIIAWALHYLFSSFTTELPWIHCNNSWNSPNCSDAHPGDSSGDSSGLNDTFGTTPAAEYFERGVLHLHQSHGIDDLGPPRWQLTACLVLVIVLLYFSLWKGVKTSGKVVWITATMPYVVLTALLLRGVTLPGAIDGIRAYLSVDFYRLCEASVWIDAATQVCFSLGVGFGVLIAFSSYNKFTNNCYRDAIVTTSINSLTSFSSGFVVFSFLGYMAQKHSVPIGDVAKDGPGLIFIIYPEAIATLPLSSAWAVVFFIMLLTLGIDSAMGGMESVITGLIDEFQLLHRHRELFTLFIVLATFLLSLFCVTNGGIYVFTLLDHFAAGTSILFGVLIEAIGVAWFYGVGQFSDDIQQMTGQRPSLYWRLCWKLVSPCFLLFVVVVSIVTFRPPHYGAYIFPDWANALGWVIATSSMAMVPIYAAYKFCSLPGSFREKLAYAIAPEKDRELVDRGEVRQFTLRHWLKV

One may read the inhibition as the drop in the measured response relative to a control, in per cent. In general, melting point refers to the temperature, or range, at which the solid turns liquid. The IC50 is the point on the concentration scale where inhibition reaches its midpoint. `COc1cc(NCc2cccs2)nc(-c2ccc(S(C)(=O)=O)cc2)n1` [Compound 17, 6-Methoxy-2-(4-(methylsulfonyl)phenyl)-N-(thiophen-2-ylmethyl)pyrimidin-4-amine] had a melting point of 139 to 141 °C. Besides, the inhibition at 10 µM on 5-HT1B came to 50%. Further, the “inhibition of radioligand binding at benzodiazepine (BzP)” value with benzodiazepine (BzP) is recorded as 50.6%. Besides, the “inhibition of radioligand binding at all tested receptors, transporters, and binding sites” value in data set [1] is given as “less than 50%”. Further, in the data set with human COX-2 (Table 1, human whole blood COX-2, SEM <15%, read-out: HWB IC50), the IC50 was […]. The IC50 in the data set on human COX-2 (footnote c, SE <15%, read-out: IC50 COX-2 Human WB (literature) (converted)) is […]. Further, the inhibition at 10 µM in data set [2] was found to be 53.7%. On COX-1 [3], this compound had an IC50 of more than 1000 nM. This compound returned an IC50 on COX-1 [4] of more than 1000 nM. The compound further had an IC50 against COX-2 [5] of 2.58 ± 0.23 nM. Besides, on COX-1 [6], the half-inhibitory concentration (IC50) is more than 8800 nM.

For the compound `CS(=O)(=O)c1ccc(-c2nc(NCc3cccs3)cc(OCF)n2)cc1` [Compound 27, 6-(2-Fluoromethoxy)-2-(4-(methylsulfonyl)phenyl)-N-(thiophen-2-yl-methyl)pyrimidin-4-amine], the IC50 is 2.26 ± 0.63 nM on COX-2 [7], more than 1000 nM on COX-1 [3], more than 1000 nM against COX-1 [4] and 2.26 ± 0.45 nM against COX-2 [5]. The “inhibition of radioligand binding at benzodiazepine (BzP)” value in the data set with benzodiazepine (BzP) was 50.8%. Moreover, in [1], the “inhibition of radioligand binding at all tested receptors, transporters, and binding sites” value is “less than 50%”.

One may read the Ki as a measure of affinity in units of concentration, obtained from inhibition or displacement. Usually logP stands for a log measure of how a compound divides between an organic and an aqueous phase. In the case of `CS(=O)(=O)c1ccc(-c2ccsc2-c2ccc([18F])cc2)cc1` [[^18F]9, [^18F]desbromo-DuP-697], the Ki on COX-2 [8] was 250 nM. Also, the lipophilicity (logP) in [9] is given as 3.72. Further, in the data set on COX-2 [10], the brain entry result was “Brain penetrant”.

As usually defined, the logD is the decadic logarithm of the distribution of all forms, ionised or not, between an organic phase and buffer at a given pH. Take `CS(=O)(=O)c1ccc(-c2cc(C(F)(F)F)nc(NCc3ccc([18F])cc3)n2)cc1` [[^18F]10, [^18F]pyricoxib]: the logD in data set [9] was 3.37.

Consider `CS(=O)(=O)c1ccc(-c2nc(NCc3cccs3)cc(OCC[18F])n2)cc1` [[^18F]20], for which the logD in data set [11] is 2.94 ± 0.32.

Turning to `[2H]C([2H])([18F])Oc1cc(NCc2cccs2)nc(-c2ccc(S(C)(=O)=O)cc2)n1` [[d2-^18F]27], in data set [11], the logD was 3.7 ± 0.12.
